According to patent US8609715B2, “Heteroarylcarboxylic acid ester derivative” (Ajinomoto Co., Inc., priority 2009, dated 2013):
Where a name gives a salt, the structure may show the parent alone.

Target: recombinant human enteropeptidase (Homo sapiens (Human), UniProt P98073)
Assay: Measurement of enteropeptidase inhibitory activity
Assay type: biochemical
Details: Dixon plot
Description: Measurement of Enteropeptidase Inhibitory Activity
Using a 96 well plate (#3915, Costar), a test compound (25 μL), 400 mM Tris-HCl buffer (pH 8.0, 25 μL) and 0.5 mg/mL fluorescence enzyme substrate (Gly-Asp-Asp-Asp-Asp-Lys-β-Naphtylamide, 25 μL) were mixed, and recombinant human enteropeptidase (R&D Systems, Inc., 25 μL) was added. Using a fluorescence plate reader fmax (Molecular Devices, Inc.), the reaction rate was measured from the time-course changes at excitation wavelength 320 nm and fluorescence wavelength 405 nm. The Ki value was calculated from the concentration of the test compound, reciprocal of reaction rate, and Km value of the enzyme substrate, and by using Dixon plot.

Chain of recombinant human enteropeptidase (P98073 whole entry): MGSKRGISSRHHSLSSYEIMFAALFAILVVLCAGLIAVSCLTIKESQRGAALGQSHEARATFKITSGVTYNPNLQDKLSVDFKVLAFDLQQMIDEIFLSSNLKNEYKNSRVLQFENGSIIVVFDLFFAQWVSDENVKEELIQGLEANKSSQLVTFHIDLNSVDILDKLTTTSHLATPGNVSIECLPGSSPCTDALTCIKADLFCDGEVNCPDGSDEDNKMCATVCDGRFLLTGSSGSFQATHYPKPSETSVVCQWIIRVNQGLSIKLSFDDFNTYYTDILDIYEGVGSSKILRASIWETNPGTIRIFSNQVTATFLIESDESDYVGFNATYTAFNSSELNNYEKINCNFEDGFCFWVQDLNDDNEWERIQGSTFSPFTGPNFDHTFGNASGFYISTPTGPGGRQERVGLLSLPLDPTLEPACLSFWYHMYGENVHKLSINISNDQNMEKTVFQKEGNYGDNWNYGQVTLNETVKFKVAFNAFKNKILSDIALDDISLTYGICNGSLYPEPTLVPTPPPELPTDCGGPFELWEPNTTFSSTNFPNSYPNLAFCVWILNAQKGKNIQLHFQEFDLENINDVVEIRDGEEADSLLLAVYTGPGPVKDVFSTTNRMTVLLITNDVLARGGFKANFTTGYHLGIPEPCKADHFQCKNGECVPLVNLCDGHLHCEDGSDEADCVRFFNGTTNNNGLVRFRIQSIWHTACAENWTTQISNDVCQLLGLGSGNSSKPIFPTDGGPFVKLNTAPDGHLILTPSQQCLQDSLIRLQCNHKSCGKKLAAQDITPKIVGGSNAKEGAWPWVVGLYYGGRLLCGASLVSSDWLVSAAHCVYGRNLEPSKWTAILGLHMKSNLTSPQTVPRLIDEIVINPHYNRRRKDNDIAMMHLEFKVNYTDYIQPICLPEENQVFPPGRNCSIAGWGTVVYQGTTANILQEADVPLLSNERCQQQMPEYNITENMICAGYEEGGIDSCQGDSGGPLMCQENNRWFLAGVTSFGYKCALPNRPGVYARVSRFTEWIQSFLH

CC(Cc1ccc(C(=O)Oc2ccc(C(=N)N)cc2)o1)C(=O)O (stereo in doubt) [Compound A-42, 3-[5-(4-amidinophenoxycarbonyl)furan-2-yl]-2R-methylpropionic acid trifluoroacetic acid salt]
Ki: 710 pM

C/C(=C\c1ccc(C(=O)Oc2ccc(C(=N)N)cc2)o1)C(=O)N[C@@H](CO)C(=O)O [Compound A-1]
Ki: 2270 pM

C/C(=C\c1ccc(C(=O)Oc2ccc(C(=N)N)cc2)o1)C(=O)NCC(=O)O [Compound A-2]
Ki: 1970 pM

C/C(=C\c1ccc(C(=O)Oc2ccc(C(=N)N)cc2)o1)C(=O)O [Compound A-3, (2E)-3-[5-(4-amidinophenoxycarbonyl)-furan-2-yl]-2-methylpropenoic acid trifluoroacetic acid salt]
Ki: 1150 pM

CC(Cc1ccc(C(=O)Oc2ccc(C(=N)N)cc2)o1)C(=O)NCC(=O)O (stereo not drawn) [Compound A-4]
Ki: 2680 pM

CC(Cc1ccc(C(=O)Oc2ccc(C(=N)N)cc2)o1)C(=O)N[C@@H](CO)C(=O)O (stereo partly drawn) [Compound A-5]
Ki: 1370 pM

CC(Cc1ccc(C(=O)Oc2ccc(C(=N)N)cc2)o1)C(=O)O (stereo not drawn) [Compound A-6, 3-[5-(4-amidinophenoxycarbonyl)furan-2-yl]-2-methylpropionic acid trifluoroacetic acid salt]
Ki: 620 pM

C/C(=C\c1ccc(C(=O)Oc2ccc(C(=N)N)cc2)o1)C(=O)N(CCCO)CC(=O)O [Compound A-7]
Ki: 1490 pM

CC(Cc1ccc(C(=O)Oc2ccc(C(=N)N)cc2)o1)C(=O)N(CCCO)CC(=O)O (stereo not drawn) [Compound A-9]
Ki: 3170 pM

C/C(=C\c1ccc(C(=O)Oc2ccc(C(=N)N)cc2)o1)C(=O)N(CCO)Cc1ccccc1 [Compound A-10]
Ki: 6730 pM

C/C(=C\c1ccc(C(=O)Oc2ccc(C(=N)N)cc2)o1)C(=O)N(CCCO)CCC(=O)O [Compound A-12, N-{(2E)-3-[5-(4-amidino-2-phenoxycarbonyl)furan-2-yl]-2-methylpropenoyl}-N-(3-hydroxypropyl)-β-alanine trifluoroacetic acid salt]
Ki: 3310 pM

C/C(=C\c1ccc(C(=O)Oc2ccc(C(=N)N)cc2)o1)C(=O)N[C@H](C(=O)O)C(C)O (stereo partly drawn) [Compound A-14]
Ki: 3520 pM

CC(Cc1ccc(C(=O)Oc2ccc(C(=N)N)cc2)o1)C(=O)N[C@@H](CCC(=O)O)C(=O)O (stereo partly drawn) [Compound A-15]
Ki: 1630 pM

CC(Cc1ccc(C(=O)Oc2ccc(C(=N)N)cc2)o1)C(=O)N[C@H](C(=O)O)C(C)O (stereo partly drawn) [Compound A-16]
Ki: 1880 pM

CC(Cc1ccc(C(=O)Oc2ccc(C(=N)N)cc2)o1)C(=O)N[C@@H](CC(=O)O)C(=O)O (stereo partly drawn) [Compound A-18]
Ki: 610 pM

CC(Cc1ccc(C(=O)Oc2ccc(C(=N)N)cc2)o1)C(=O)N1CCC[C@@H]1C(=O)O (stereo partly drawn) [Compound A-19]
Ki: 1910 pM

CC(Cc1ccc(C(=O)Oc2ccc(C(=N)N)cc2)o1)C(=O)N1C[C@H](O)C[C@@H]1C(=O)O (stereo partly drawn) [Compound A-20]
Ki: 2540 pM

CC(Cc1ccc(C(=O)Oc2ccc(C(=N)N)cc2)o1)C(=O)N1C[C@@H](O)C[C@H]1C(=O)O (stereo partly drawn) [Compound A-21]
Ki: 4810 pM

C[C@H](Cc1ccc(C(=O)Oc2ccc(C(=N)N)cc2)o1)C(=O)N[C@@H](CC(N)=O)C(=O)O [Compound A-22]
Ki: 950 pM

C[C@@H](Cc1ccc(C(=O)Oc2ccc(C(=N)N)cc2)o1)C(=O)N[C@@H](CC(N)=O)C(=O)O [Compound A-23]
Ki: 2000 pM

CC(Cc1ccc(C(=O)Oc2ccc(C(=N)N)cc2)o1)C(=O)N(CC(=O)O)CC(=O)O (stereo not drawn) [Compound A-26]
Ki: 680 pM

CC(Cc1ccc(C(=O)Oc2ccc(C(=N)N)cc2)o1)C(=O)N[C@H](CCC(=O)O)C(=O)O (stereo partly drawn) [Compound A-27]
Ki: 570 pM

CC(Cc1ccc(C(=O)Oc2ccc(C(=N)N)cc2)o1)C(=O)N[C@H](CC(=O)O)C(=O)O (stereo partly drawn) [Compound A-28]
Ki: 420 pM

CCC(Cc1ccc(C(=O)Oc2ccc(C(=N)N)cc2)o1)C(=O)O (stereo not drawn) [Compound A-29, 3-[5-(4-amidinophenoxycarbonyl)furan-2-yl]-2-ethylpropionic acid trifluoroacetic acid salt]
Ki: 820 pM

CC[C@H](Cc1ccc(C(=O)Oc2ccc(C(=N)N)cc2)o1)C(=O)N[C@H](CCC(=O)O)C(=O)O [Compound A-30]
Ki: 1030 pM

CCC(Cc1ccc(C(=O)Oc2ccc(C(=N)N)cc2)o1)C(=O)N[C@H](CC(=O)O)C(=O)O (stereo partly drawn) [Compound A-31]
Ki: 500 pM

N=C(N)c1ccc(OC(=O)c2ccc(CC(=O)O)o2)cc1 [Compound A-32, 5-(4-amidinophenoxycarbonyl)furan-2-ylacetic acid trifluoroacetic acid salt]
Ki: 620 pM

CC(Cc1ccc(C(=O)Oc2ccc(C(=N)N)cc2F)o1)C(=O)O (stereo not drawn) [Compound A-33]
Ki: 650 pM

CCCC(Cc1ccc(C(=O)Oc2ccc(C(=N)N)cc2)o1)C(=O)O (stereo not drawn) [Compound A-34]
Ki: 980 pM

CC(Cc1ccc(C(=O)Oc2ccc(C(=N)N)cc2F)o1)C(=O)N[C@H](CC(=O)O)C(=O)O (stereo partly drawn) [Compound A-35, N-{3-[5-(4-amidino-2-fluorophenoxycarbonyl)furan-2-yl]-2-methylpropanoyl}-N-(D)-aspartic acid trifluoroacetic acid salt]
Ki: 250 pM

CC(Cc1ccc(C(=O)Oc2ccc(C(=N)N)cc2)o1)S(=O)(=O)O (stereo not drawn) [Compound A-36, 1-[5-(4-amidinophenoxycarbonyl)furan-2-yl]propane-2-sulfonic acid trifluoroacetic acid salt]
Ki: 580 pM

N=C(N)c1ccc(OC(=O)c2ccc(CCC(=O)O)o2)cc1 [Compound A-37]
Ki: 640 pM

N=C(N)c1ccc(OC(=O)c2ccc(CCC(=O)N[C@@H](CC(=O)O)C(=O)O)o2)cc1 [Compound A-38]
Ki: 570 pM

N=C(N)c1ccc(OC(=O)c2ccc(CC(=O)N[C@@H](CC(=O)O)C(=O)O)o2)cc1 [Compound A-39, N-[5-(4-amidinophenoxycarbonyl)furan-2-ylacetyl]-(L)-aspartic acid trifluoroacetic acid salt]
Ki: 670 pM

C[C@H](Cc1ccc(C(=O)Oc2ccc(C(=N)N)cc2)o1)C(=O)O [Compound A-41, 3-[5-(4-amidinophenoxycarbonyl)furan-2-yl]-2S-methylpropionic acid trifluoroacetic acid salt]
Ki: 500 pM

C[C@@H](Cc1ccc(C(=O)Oc2ccc(C(=N)N)cc2)o1)C(=O)N[C@@H](CC(=O)O)C(=O)O [Compound A-43, N-{3-[5-(4-amidinophenoxycarbonyl)-furan-2-yl]-2S-methylpropionyl}-L-aspartic acid trifluoroacetic acid salt]
Ki: 400 pM

C[C@H](Cc1ccc(C(=O)Oc2ccc(C(=N)N)cc2)o1)C(=O)N[C@@H](CC(=O)O)C(=O)O [Compound A-44, N-[3-[5-(4-amidinophenoxycarbonyl)-furan-2-yl]-2R-methylpropionyl]-L-aspartic acid trifluoroacetic acid salt]
Ki: 330 pM

C[C@@H](Cc1ccc(C(=O)Oc2ccc(C(=N)N)cc2)o1)C(=O)N[C@H](CC(=O)O)C(=O)O [Compound A-45, N-{3-[5-(4-amidinophenoxycarbonyl)-furan-2-yl]-2S-methylpropionyl}-D-aspartic acid trifluoroacetic acid salt]
Ki: 460 pM

C[C@H](Cc1ccc(C(=O)Oc2ccc(C(=N)N)cc2)o1)C(=O)N[C@H](CC(=O)O)C(=O)O [Compound A-46, N-{3-[5-(4-amidinophenoxycarbonyl)-furan-2-yl]-2R-methylpropionyl}-D-aspartic acid trifluoroacetic acid salt]
Ki: 350 pM
